From ChEMBL document CHEMBL6096711, “Discovery of Novel Pyrimidine Derivatives as Human Pin1 Covalent Inhibitors” (ACS Med Chem Lett, 2025)
Where a SMILES comes first, the peptide text is derived from it. [ ]: non-standard residue; d: D form. The star is where a group is joined. NMeF = CN[C@@H](Cc1ccccc1)C(=O)O; Pip = O=C(O)[C@@H]1CCCCN1; ClAc = O=C(CCl)*

Target: T1, Peptidyl-prolyl cis-trans isomerase NIMA-interacting 1 (Homo sapiens, UniProt Q13526)
Assay: Inhibition of human Pin1 extracted from Escherichia coli BL21 (DE3) cells using TAMRA labelled Bth-(D-Thr(PO3H2))-Pip-Nal-NH2 peptide probe as substrate by fluorescence polarization assay
Details: not given

T1 sequence (Q13526 whole entry): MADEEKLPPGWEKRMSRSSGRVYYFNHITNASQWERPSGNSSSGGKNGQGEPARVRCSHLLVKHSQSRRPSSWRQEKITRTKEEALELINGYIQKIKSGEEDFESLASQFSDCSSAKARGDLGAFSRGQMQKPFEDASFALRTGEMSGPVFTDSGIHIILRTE

IC50 [µM]	SMILES
0.12	CC(C)(C)CN(C(=O)CCl)C1CCS(=O)(=O)C1 (configuration not stated)
144	O=S1(=O)CCC(Nc2nc(Cl)nc(Cl)n2)C1 (configuration not stated)
101	O=[N+]([O-])c1cnc(Cl)nc1N(CC1CCCCC1)C1CCS(=O)(=O)C1 (configuration not stated)

Target: T1, Peptidyl-prolyl cis-trans isomerase NIMA-interacting 1
Assay: Inhibition of human Pin1 using Suc-Ala-Glu-Pro-Phe04-nitroanilide as peptide substrate preincubated for 14 hrs followed by substrate addition and measured immediately by chymotrypsin-coupled PPIase assay
Details: not given

IC50 [µM]	SMILES
0.12	CC(C)(C)CN(C(=O)CCl)C1CCS(=O)(=O)C1 (configuration not stated)

System: not listed separately
Assay: Stability in mouse liver microsomes assessed as half life
Assay type: ADME, Microsome
Details: not given

half-life [min]	SMILES
1.2	CCOC(=O)[C@H](CCCNC(=N)N)NC(=O)[C@H](Cc1c[nH]c2ccccc12)NC(=O)[C@@H]1CCCCN1C(=O)[C@H](Cc1ccccc1)N(C)C(=O)CCl (ClAc-[NMeF][Pip]WR-OEt)

System: HCT-116
Assay: cells
Details: Homo sapiens, HCT-116, 96 h
Description: Antitumor activity against human HCT-116 cells assessed as inhibition of cell growth measured after 96 hrs by MTT assay

IC50 [µM]	SMILES
7.54	CC(C)(C)CN(C(=O)CCl)C1CCS(=O)(=O)C1 (configuration not stated)
2.6	O=[N+]([O-])c1cnc(Cl)nc1N(Cc1ccc(-c2cccc3ccoc23)s1)C1CCS(=O)(=O)C1 (configuration not stated)
3.35	O=[N+]([O-])c1cnc(Cl)nc1N(Cc1ccc(-c2ccc3ccccc3c2)s1)C1CCS(=O)(=O)C1 (configuration not stated)
5.04	O=[N+]([O-])c1cnc(Cl)nc1N(Cc1cccc2ccccc12)C1CCS(=O)(=O)C1 (configuration not stated)
> 100	O=[N+]([O-])c1cnc(N(Cc2coc3ccccc23)C2CCS(=O)(=O)C2)nc1Cl (configuration not stated)
> 100	O=[N+]([O-])c1cnc(N(Cc2ccc3ccccc3c2)C2CCS(=O)(=O)C2)nc1Cl (configuration not stated)

System: MCF7
Assay: cells
Details: Homo sapiens, MCF7, 96 h
Description: Antitumor activity against human MCF7 cells assessed as inhibition of cell growth measured after 96 hrs by MTT assay

IC50 [µM]	SMILES
> 100	CC(C)(C)CN(C(=O)CCl)C1CCS(=O)(=O)C1 (configuration not stated)
4.24	O=[N+]([O-])c1cnc(Cl)nc1N(Cc1ccc(-c2cccc3ccoc23)s1)C1CCS(=O)(=O)C1 (configuration not stated)
4.95	O=[N+]([O-])c1cnc(Cl)nc1N(Cc1ccc(-c2ccc3ccccc3c2)s1)C1CCS(=O)(=O)C1 (configuration not stated)
> 100	O=[N+]([O-])c1cnc(Cl)nc1N(Cc1cccc2ccccc12)C1CCS(=O)(=O)C1 (configuration not stated)
5.26	O=[N+]([O-])c1cnc(N(Cc2coc3ccccc23)C2CCS(=O)(=O)C2)nc1Cl (configuration not stated)
3.94	O=[N+]([O-])c1cnc(N(Cc2ccc3ccccc3c2)C2CCS(=O)(=O)C2)nc1Cl (configuration not stated)
